Test results: patent US4973578A, “Synthetic peptides derived from the alpha-subunit of human lycoprotein hormones” (Mayo Foundation for Medical Education and Research, priority 1988, dated 1990)
Residues, ends and D or L forms follow the SMILES beside them.

Biological target: T1, TSH receptor on human thyroid membranes (Homo sapiens, UniProt P16473)
T1 construct: Thyroid tissue obtained at surgery from patients with Graves' disease was prepared as described by Takahashi et al; from tissue; host or cells: human thyroid tissue from Graves' disease patients, 2000xg membrane fraction
T1 sequence (P16473 21-764): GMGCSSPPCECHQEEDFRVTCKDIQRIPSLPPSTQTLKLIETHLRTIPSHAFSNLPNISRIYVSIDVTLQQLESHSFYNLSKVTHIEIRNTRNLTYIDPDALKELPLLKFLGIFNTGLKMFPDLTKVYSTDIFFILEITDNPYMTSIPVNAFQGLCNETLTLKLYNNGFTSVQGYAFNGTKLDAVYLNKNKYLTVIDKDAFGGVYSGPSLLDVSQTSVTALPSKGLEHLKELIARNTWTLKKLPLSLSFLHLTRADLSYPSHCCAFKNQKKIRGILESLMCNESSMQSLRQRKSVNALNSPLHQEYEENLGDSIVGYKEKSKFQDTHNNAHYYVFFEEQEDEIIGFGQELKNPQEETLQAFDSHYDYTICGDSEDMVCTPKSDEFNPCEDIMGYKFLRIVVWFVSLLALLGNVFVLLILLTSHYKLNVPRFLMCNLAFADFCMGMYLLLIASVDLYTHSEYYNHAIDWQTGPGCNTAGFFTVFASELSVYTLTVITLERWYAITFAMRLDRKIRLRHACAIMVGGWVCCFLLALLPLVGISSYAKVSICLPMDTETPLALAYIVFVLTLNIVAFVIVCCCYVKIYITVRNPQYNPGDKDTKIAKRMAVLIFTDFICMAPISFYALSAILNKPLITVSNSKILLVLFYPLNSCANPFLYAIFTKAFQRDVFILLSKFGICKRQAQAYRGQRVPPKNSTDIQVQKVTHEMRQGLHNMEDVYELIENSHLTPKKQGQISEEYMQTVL
Test: TSH radioreceptor assay: inhibition of 125I-bTSH binding to human thyroid membrane preparations
Protocol: Thyroid tissue obtained at surgery from patients with Graves' disease was prepared as described by Takahashi et al., J. Clin. Endocrinol. Metab. 47:870 (1978), the disclosure of which is incorporated herein. Briefly, the tissue was dissected free of fibrous material, minced with scissors, and homogenized with Polytron homogenizer. The 2000×g fraction was collected by centrifugation, washed and resuspended in 40 mM Tris, 0.1% Bovine Serum Albumin (BSA) pH 7.4 at a concentration of 100 mg equivalents of wet tissue per milliliter. The preparation was stored at -70° C. until used for assay.
Highly purified bovine TSH (30 IU/mg, supplied by Dr. J. G. Pierce, UCLA) was radio-iodinated (Na^125 I, Amersham, Chicago) by a gentle lactoperoxidase procedure described by Takahashi et al., supra, then purified by Sephadex G-100 chromatography.
The membrane assay incubation mixture consisted of […] of the 2000×g membrane fraction, 0.125 ng ^125 I bTSH (approximately 20,000 cpm, 5×10^-12 M), 100 ul of 1% Triton X-100 and noted amounts of test materials in a final volume of 0.5 ml of 40 mM Tris-HCl pH 7.4 plus 0.1% BSA. Nonspecific binding was determined by addition of excess unlabeled bTSH (200 mU/ml, Sigma, St. Louis). After 2 hrs incubation at 25° C., 200 ul of 5 mg/ml bovine gamma globulin and 1 ml 30% polyethylene glycol 6000 (Baker, Phillipsburg, N.J.) in 1M NaCl was added to each tube and the tubes centrifuged at 4000 rpm for 25 minutes. The supernatants were aspirated and pellets counted in a gamma counter. Specific binding averaged 25% of total counts.
FIG. 1 reports 5×10^-12 M labeled bTSH incubated with 10 mg equivalents (wet weight) of 2000×g fraction of thyroid membranes with varying concentrations of unlabeled TSH or synthetic α-subunit peptides. Nonspecific binding was determined in the presence of excess unlabeled TSH.

CSCC[C@H](NC(=O)[C@H](CS)NC(=O)[C@H](CCC(N)=O)NC(=O)[C@@H](N)CC(C)C)C(=O)NCC(=O)N[C@@H](CS)C(=O)N[C@@H](CS)C(=O)N[C@@H](Cc1ccccc1)C(=O)N[C@@H](CO)C(=O)N[C@@H](CCCNC(=N)N)C(=O)N[C@@H](C)C(=O)N[C@@H](Cc1ccc(O)cc1)C(=O)N1CCC[C@H]1C(=O)N[C@H](C(=O)N1CCC[C@H]1C(=O)N[C@@H](CC(C)C)C(=O)N[C@@H](CCCNC(=N)N)C(=O)N[C@@H](CO)C(=O)N[C@@H](CCCCN)C(=O)N[C@@H](CCCCN)C(=O)N[C@H](C(N)=O)[C@@H](C)O)[C@@H](C)O [α26-46, Leu--Gln--Cys--Met--Gly--Cys--Cys--Phe--Ser--Arg--Ala--Tyr--Pro--Thr--Pro--Leu--Arg--Ser--Lys--Lys--Thr--(NH2)] (H-LQCMGCCFSRAYPTPLRSKKT-NH2)
displacement of 125I-bTSH label (at concentrations greater than 1×10^-5 m, FIG. 1): more than 80% | IC50 (human thyroid membrane homogenates, ± S.E., read-out: bTSH ED50 (effective dose necessary to inhibit binding of 125I-bTSH by 50%)): 10.8 ± 0.3 µM | inhibition of 125I-bTSH binding, result in words (human thyroid membranes, FIG. 1): dose dependent inhibition
